According to EP4711371A1 (priority 2023, dated 2024):
Where two headings read alike, the source gives them in different places.

Columns and labels:
Type in all cases: cell-based
NCI-N87 = assay: In vitro proliferation inhibition assay of camptothecin derivatives (Payload), Test Example 1; conditions: Homo sapiens, NCI-N87, 96 h, read-out: NCI-N87 IC50
Excerpt: (§1) The control compounds used in the experiment were DXD (synthesized from EXD according to the synthesis method of patent EP2907824B1. EXD was purchased from MedChemExpress, catalog number: HY-13631A) and SN38 (purchased from Bide Pharmatech, catalog number BD8481). Their structural formulas are [drawing 515] respectively.
(§2) The cell lines used in this experiment were human breast cancer cells SK-BR-3, T47D, MDA-MB-453, human malignant melanoma cells A375, human lung squamous carcinoma cells NCI-H1703, and human gastric cancer cells NCI-N87. Cell suspensions were prepared in fresh cell culture medium containing 10% FBS and then diluted to a density of 5 × 10^4 cells/mL, 10×10^4 cells/mL, 100 µL per well was added to a 96-well cell culture plate (Thermo catalog number: 167425), and cultured at 37°C with 5% carbon dioxide for 24 h.
(§3) The test compounds of the present invention and the control compounds were each prepared to 10 mM stock solutions in DMSO, and the drugs were diluted with 5% FBS 1640 culture medium in a gradient of 50, 10, 2, 0.4, 0.08, 0.016, 0.0032, 0.00064, 0.000128, and 0 µM, with two replicates for each well.
(§4) 50 µL of cell supernatant was pipetted from each 96-well plate, followed by the addition of 50 µL of compound dilutions at final […] of 25, 5, 1, 0.2, 0.04, 0.008, 0.0016, 0.00032, 0.000064, and 0 µM. After mixing, the cells were cultured in a constant temperature CO2 incubator for 4 days. Cell supernatant was then added with 100 µL of detection reagent (5% FBS1640 medium and CCK-8 solution in a 10:1 ratio) and incubated in an incubator for 4 hours. […] was read on a microplate reader (TECAN, Spark), and data were analyzed using Graphpad Prism 8 software.

SK-BR-3 = assay: as above; conditions: Homo sapiens, SK-BR-3, 96 h, read-out: SK-BR-3 IC50
Excerpt: as §1, §2, §3, §4

A375 = assay: as above; conditions: Homo sapiens, A-375, 96 h, read-out: A375 IC50
Excerpt: as §1, §2, §3, §4

MDA-MB-453 [1] = assay: as above; conditions: Homo sapiens, MDA-MB-453, 96 h, read-out: MDA-MB-453 IC50
Excerpt: as §1, §2, §3, §4

NCI-H1703 = assay: as above; conditions: Homo sapiens, NCI-H1703, 96 h, read-out: NCI-H1703 IC50
Excerpt: as §1, §2, §3, §4

T47D [2] = assay: cells; conditions: Homo sapiens, 96 h
Excerpt: as §1, §2, §3, §4

T47D [3] = assay: cells; conditions: Homo sapiens, 120 h, read-out: T47D IC50
Experimental: (§5) Test Example 2 In vitro proliferation inhibition assay of the camptothecin derivatives (Payload) of the present invention on tumor cells 1. Instruments and Reagents
(§6) 2. Experimental Procedure • a. Plating & culture: MDA-MB-453 (purchased from: Xiehe, catalog number: 1101HUM-PUMCO00016)/T47D (Kebai, CBP60397)/HT1376 cells (purchased from: Kebai, catalog number: CBP60310) were cultured into 96-well plates by a density of 1×10^3 /2×10^3 /1×10^3 cells per100 µL, and 200 µL of PBS was added to the outermost circle (to reduce the volatilization of the culture medium), and cultured at 37°C, 5% CO2 incubator for 24 h; • b. Drug Addition & Incubation: The 96-well flat-bottom plate was retrieved. The culture medium in the wells was aspirated, and 100 µL of the ADC drug/payload (diluted in culture medium) was added to each well. The plate was then incubated at 37°C, 5% CO2 incubator for 5 days. 3. Detection and data processing • a. The 96-well plate was retrieved. The culture medium was removed, and 100 µL of detection reagent (CCK8:medium= 1:9) was added to each well. The plate was then placed in a 37°C, 5% CO2 incubator for 4 hours; • b. The optical density (OD) at 450 nm was measured using a microplate reader (model: CEY0017), and the data was recorded with Excel. • c. Graphpad Prism 9.0 was used to analyze and organize the data.

HT1376 = assay: In vitro proliferation inhibition assay of camptothecin derivatives (Payload), Test Example 2; conditions: Homo sapiens, HT-1376, 120 h, read-out: HT1376 IC50
Experimental: as §5, §6

MDA-MB-453 [4] = assay: as above; conditions: Homo sapiens, MDA-MB-453, 120 h, read-out: MDA-MB-453 IC50
Experimental: as §5, §6

[5] = payload, cultured 4 days, CCK-8
[6] = payload, cultured 4 days, CCK-8, ~ indicates estimated IC50 value
[7] = payload, cultured 4 days, CCK-8, read-out: T47D IC50

CC[C@@]1(OC(=O)CCN2CCN(C)CC2)C(=O)OCc2c1cc1n(c2=O)Cc2c-1nc1cc(F)c(C)c3c1c2[C@@H](N)CC3 [Compound 2]
IC50 (NCI-N87; [5]): 3.75 nM
IC50 (SK-BR-3; [5]): 1.56 nM

CCC1(OC(=O)Cc2ccc(OC3OC(CO)C(O)C(O)C3O)cc2)C(=O)OCc2c1cc1n(c2=O)Cc2c-1nc1cc(F)c(C)c3c1c2C(N)CC3 (stereo not drawn) [Compound 3]
IC50 (NCI-N87): 1.91 nM
IC50 (SK-BR-3): 1.04 nM

CC[C@@]1(OC(=O)CCN2C(=O)c3ccccc3C2=O)C(=O)OCc2c1cc1n(c2=O)Cc2c-1nc1cc(F)c(C)c3c1c2[C@@H](N)CC3 [Compound 4]
IC50 (NCI-N87; [5]): 381 nM
IC50 (SK-BR-3; [5]): 183 nM

CC[C@@]1(OC(=O)Cn2cc(F)c(=O)[nH]c2=O)C(=O)OCc2c1cc1n(c2=O)Cc2c-1nc1cc(F)c(C)c3c1c2[C@@H](N)CC3 [Compound 6]
IC50 (A375; [6]): 0.164 nM
IC50 (NCI-N87; [5]): 2.23 nM
IC50 (MDA-MB-453 [1]; [5]): 4.24 nM
IC50 (NCI-H1703; [5]): 0.59 nM
IC50 (SK-BR-3; [5]): 1.23 nM
IC50 (T47D [2]; [7]): 0.742 nM

CC[C@@]1(OC(=O)CCOCCOCCOCCOC)C(=O)OCc2c1cc1n(c2=O)Cc2c-1nc1cc(F)c(C)c3c1c2[C@@H](N)CC3 [Compound 7]
IC50 (A375; [6]): 0.714 nM
IC50 (MDA-MB-453 [1]; [5]): 570 nM
IC50 (NCI-H1703; [5]): 0.064 nM
IC50 (T47D [2]; [7]): 245 nM

CC[C@@]1(OC(=O)COc2ccc(Cl)cc2C)C(=O)OCc2c1cc1n(c2=O)Cc2c-1nc1cc(F)c(C)c3c1c2[C@@H](N)CC3 [Compound 9]
IC50 (MDA-MB-453 [1]; [5]): 3.86 nM
IC50 (NCI-H1703; [5]): 0.149 nM
IC50 (T47D [2]; [7]): 0.804 nM

CC[C@@]1(O)C(=O)OCc2c1cc1n(c2=S)Cc2c-1nc1cc(F)c(C)cc1c2CN [Compound 11]
IC50 (NCI-N87): 1.56 nM
IC50 (SK-BR-3): 0.906 nM
IC50 (T47D [3]): 0.141 nM
IC50 (HT1376): 3.85 nM
IC50 (MDA-MB-453 [4]): 0.645 nM

CC[C@@]1(O)C(=O)OCc2c1cc1n(c2=S)Cc2c-1nc1cc(F)c(C)cc1c2CNC(=O)CO [Compound 17]
IC50 (NCI-N87): 0.999 nM
IC50 (MDA-MB-453 [1]): 1.14 nM
IC50 (SK-BR-3): 0.675 nM
IC50 (T47D [2]; read-out: T47D IC50): 0.172 nM

CC[C@@]1(O)C(=O)OCc2c1cc1n(c2=O)Cc2c-1nc1cc(F)c(C)c3c1c2[C@@H](NC(=O)CO)CC3 [DXD, Dxd, reference compound]
IC50 (A375): 0.131 nM
IC50 (NCI-N87): 5.97 nM
IC50 (MDA-MB-453 [1]): 2.87 nM
IC50 (NCI-H1703): 0.472 nM
IC50 (SK-BR-3): 3.62 nM
IC50 (T47D [2]; read-out: T47D IC50): 1.02 nM

CC[C@@]1(O)C(=O)OCc2c1cc1n(c2=O)Cc2c-1nc1cc(F)c(C)c3c1c2[C@@H](N)CC3 [EXD, Exatecan, reference compound]
IC50 (NCI-N87): 1.45 nM
IC50 (MDA-MB-453 [1]): 1.02 nM
IC50 (NCI-H1703): 0.00789 nM
IC50 (SK-BR-3): 0.866 nM
IC50 (T47D [3]): 0.221 nM
IC50 (T47D [2]; read-out: T47D IC50): 0.729 nM
IC50 (HT1376): 8.71 nM
IC50 (MDA-MB-453 [4]): 0.902 nM

CC[C@@]1(O)C(=O)OCc2c1cc1n(c2=S)Cc2cc3cc(N)c(F)cc3nc2-1 [Example 46]
IC50 (NCI-N87): 0.229 nM
IC50 (SK-BR-3): 0.0155 nM

CCc1c2c(nc3ccc(O)cc13)-c1cc3c(c(=O)n1C2)COC(=O)[C@]3(O)CC [SN38, SN-38, reference compound]
IC50 (NCI-N87; [5]): 5.38 nM
IC50 (MDA-MB-453 [1]; [5]): 32.8 nM
IC50 (SK-BR-3; [5]): 2.51 nM
IC50 (T47D [2]; read-out: T47D IC50): 2.11 nM
